From ChEMBL document CHEMBL1201862, “PubChem BioAssay data set” (2004)
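Protocol summary: plate cells (96-well), add compound at 5 concentrations, incubate 48 h, interpolate endpoints linearly. GI50 is the concentration that inhibits growth by half.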 Activity calls are given as the source filed them. Cut-off read from the data, not from the text of the source: active = GI50 up to about 1.1 µM and inactive = higher.

How the values were obtained:
Experiment in all cases: NCI-60 cell line screen, 48 h
IGROV-1 = test system: IGROV-1
SK-MEL-5 = test system: SK-MEL-5
MDA-MB-231 = test system: MDA-MB-231
SF-268 = test system: SF-268
HOP-62 = test system: HOP-62
UACC-257 = test system: UACC-257
RPMI-8226 = test system: RPMI-8226
SK-OV-3 = test system: SK-OV-3
OVCAR-4 = test system: OVCAR-4
HCT-15 = test system: HCT-15
A549 = test system: A549
NCI-H460 = test system: NCI-H460
MDA-N = test system: MDA-N
Malme-3M = test system: Malme-3M
A498 = test system: A498
SK-MEL-28 = test system: SK-MEL-28
PC-3 = test system: PC-3
HOP-92 = test system: HOP-92
TK-10 = test system: TK-10
HCC 2998 = test system: HCC 2998

Measured: GI50

NCC(O)CSP(=O)(O)O (configuration not stated)
> 100 µM: HCT-15
inactive: IGROV-1 > 100 µM | SK-MEL-5 > 100 µM | MDA-MB-231 > 100 µM | SF-268 > 100 µM | HOP-62 > 100 µM | UACC-257 > 100 µM | RPMI-8226 > 100 µM | SK-OV-3 > 100 µM | OVCAR-4 > 100 µM | A549 > 100 µM | NCI-H460 > 100 µM | MDA-N > 100 µM | Malme-3M > 100 µM | A498 > 100 µM | SK-MEL-28 > 100 µM | PC-3 > 100 µM | HOP-92 > 100 µM | TK-10 > 100 µM

CCN(CC)CCNc1ccc2nnn3c4ccc(OCCN(CC)CC)cc4c(=O)c1c23
64.6 µM: HCT-15
inactive: MDA-MB-231 23.1 µM | SF-268 54.1 µM | HOP-62 19.4 µM | UACC-257 > 100 µM | RPMI-8226 26.8 µM | SK-OV-3 > 100 µM | OVCAR-4 16.3 µM | HCC 2998 > 100 µM | A549 44.9 µM | NCI-H460 33.7 µM | MDA-N 66.5 µM | A498 > 100 µM | SK-MEL-28 > 100 µM | HOP-92 51.9 µM | TK-10 28.5 µM

Nc1nc(SC/C=C/c2ccccc2)c2[nH]cnc2n1
inactive: IGROV-1 22.2 µM | SK-MEL-5 > 100 µM | MDA-MB-231 > 100 µM | SF-268 74.8 µM | HOP-62 83.2 µM | UACC-257 > 100 µM | RPMI-8226 91.4 µM | SK-OV-3 > 100 µM | OVCAR-4 > 100 µM | HCC 2998 > 100 µM | A549 > 100 µM | NCI-H460 72.1 µM | MDA-N > 100 µM | Malme-3M > 100 µM | A498 > 100 µM | SK-MEL-28 > 100 µM | PC-3 > 100 µM | TK-10 22.4 µM
32.8 µM: HCT-15

CC(=O)NC1c2ccccc2C(C)(C)C12CCC1(CC2)OCCO1 (configuration not stated)
> 100 µM: HCT-15
inactive: IGROV-1 > 100 µM | SK-MEL-5 > 100 µM | MDA-MB-231 > 100 µM | SF-268 > 100 µM | HOP-62 > 100 µM | UACC-257 > 100 µM | RPMI-8226 > 100 µM | SK-OV-3 > 10 µM | OVCAR-4 > 100 µM | HCC 2998 > 100 µM | A549 > 100 µM | NCI-H460 > 10 µM | MDA-N > 100 µM | Malme-3M 98.6 µM | SK-MEL-28 > 100 µM | PC-3 > 100 µM | TK-10 > 100 µM

Cc1cc(O)c2c(c1O)C(=O)C1=C(C2=O)C(=O)C2C(O)C1C1C(O)CC(O)=C3C(=O)c4c(O)cc(C)c(O)c4C(=O)C321 (configuration not stated)
active: UACC-257 0.789 µM | RPMI-8226 0.164 µM | A549 0.693 µM | Malme-3M 0.982 µM | PC-3 0.628 µM
inactive: IGROV-1 2.36 µM | SK-MEL-5 1.65 µM | MDA-MB-231 2.64 µM | SF-268 2.28 µM | HOP-62 2.48 µM | SK-OV-3 2.24 µM | OVCAR-4 6.04 µM | HCC 2998 1.18 µM | NCI-H460 1.46 µM | MDA-N 1.44 µM | A498 1.27 µM | SK-MEL-28 1.55 µM | TK-10 3.14 µM
2.04 µM: HCT-15

C[Si](C)(C)C#CCOC=C1CC1
inactive: IGROV-1 70.8 µM | SK-MEL-5 > 100 µM | MDA-MB-231 > 100 µM | SF-268 > 100 µM | HOP-62 > 100 µM | UACC-257 > 100 µM | SK-OV-3 > 100 µM | OVCAR-4 > 100 µM | HCC 2998 > 100 µM | A549 > 100 µM | NCI-H460 > 100 µM | MDA-N > 100 µM | Malme-3M > 100 µM | SK-MEL-28 > 100 µM | PC-3 > 100 µM | TK-10 > 100 µM
> 100 µM: HCT-15

O=[N+]([O-])c1ccc(S(=O)(=O)Cc2ccccc2)c2nonc12
22.3 µM: HCT-15
inactive: IGROV-1 18.8 µM | SK-MEL-5 18.5 µM | MDA-MB-231 22.5 µM | SF-268 20 µM | HOP-62 22.7 µM | UACC-257 16.1 µM | RPMI-8226 25.1 µM | SK-OV-3 > 100 µM | OVCAR-4 17.3 µM | A549 29.4 µM | NCI-H460 21.1 µM | MDA-N 19 µM | Malme-3M 17.9 µM | A498 > 100 µM | SK-MEL-28 20.5 µM | PC-3 17.8 µM | HOP-92 19.9 µM | TK-10 18.1 µM
